Test: solvent given as SMILES

## COc1ccc(C2=CC(c3ccc(OC)cc3)=[O+][B-](C(C)=O)(C(C)=O)O2)cc1
In CC#N
  fluorescence lifetime: 2.1 ns
In ClC(Cl)(Cl)Cl
  fluorescence lifetime: 2.1 ns

## COc1cc(N(c2ccc(C=C(C#N)C#N)c(OC)c2)c2ccc(C=C(C#N)C#N)c(OC)c2)ccc1C=C(C#N)C#N
In C1COCCO1
  fluorescence lifetime: 0.65 ns
In CC#N
  fluorescence lifetime: 0.14 ns
In CC(C)=O
  fluorescence lifetime: 0.17 ns
In CCOC(C)=O
  fluorescence lifetime: 0.32 ns
In CN(C)C=O
  fluorescence lifetime: 0.06 ns
In CO
  fluorescence lifetime: 0.12 ns
In Cc1ccccc1
  fluorescence lifetime: 0.03 ns
In ClC(Cl)Cl
  fluorescence lifetime: 0.14 ns
In ClCCl
  fluorescence lifetime: 0.09 ns

## CCCCCCCCCCCCOc1cc2c3c(ccc4c5c(OCCCCCCCCCCCC)cc6c7c(ccc(c1c34)c75)C(=O)N(C1CCCCC1)C6=O)C(=O)N(C1CCCCC1)C2=O
In ClC(Cl)Cl
  fluorescence lifetime: 5.4 ns

## COc1ccc(N(c2ccccc2)c2cc3ccc4cc(N(c5ccccc5)c5ccc(OC)cc5)cc5ccc(c2)c3c45)cc1
In Cc1ccccc1
  fluorescence lifetime: 18 ns

## Cc1nn(-c2ccccc2)c(C2=NN(c3ccc(Br)cc3)[C@@H](c3ccccc3)[C@@H]2c2ccccc2)c1C#N
In C1CCCCC1
  fluorescence lifetime: 4.73 ns
In C1CCOC1
  fluorescence lifetime: 5.04 ns
In C1COCCO1
  fluorescence lifetime: 5.21 ns
In CC#N
  fluorescence lifetime: 5.05 ns
In CCCCCCC
  fluorescence lifetime: 4.64 ns
In CCO
  fluorescence lifetime: 4.53 ns
In CN(C)C=O
  fluorescence lifetime: 4.95 ns
In CO
  fluorescence lifetime: 3.74 ns
In O
  fluorescence lifetime: 2.6 ns
In OCCO
  fluorescence lifetime: 3.59 ns

## c1ccc(-c2nn(-c3ccccc3)c3nc4ccc(-n5c6ccccc6c6ccccc65)cc4cc23)cc1
In C1CCCCC1
  fluorescence lifetime: 17.6 ns
In C1CCOC1
  fluorescence lifetime: 19.1 ns
In CC#N
  fluorescence lifetime: 21.8 ns
In CC(C)=O
  fluorescence lifetime: 21.6 ns
In CCCCCl
  fluorescence lifetime: 19.1 ns
In CCCCOCCCC
  fluorescence lifetime: 19.4 ns
In CN(C)C=O
  fluorescence lifetime: 20.2 ns

## Cc1ccc(C2=C3C=CC4=[N+]3[P-](=O)(=O)n3c2ccc3-c2ccc([nH]2)/C(c2ccc(C)cc2)=c2/cc/c(o2)=C(\c2ccc(C)cc2)c2ccc4[nH]2)cc1
In ClC(Cl)Cl
  fluorescence lifetime: 4.3 ns

## COc1ccsc1-c1ccc(-c2ccc(-c3sccc3OC)s2)s1
In CCC(C)C
  fluorescence lifetime: 0.61 ns

## NS(=O)(=O)c1ccc(N2N=C(c3ccc(O)cc3)CC2c2ccc(Cl)cc2)cc1 (stereo not given)
In C1CCOC1
  fluorescence lifetime: 2.32 ns
In C1COCCO1
  fluorescence lifetime: 2.29 ns
In CC#N
  fluorescence lifetime: 2.29 ns
In CC(C)O
  fluorescence lifetime: 2 ns
In CCO
  fluorescence lifetime: 1.88 ns
In CCOC(C)=O
  fluorescence lifetime: 2.34 ns
In CN(C)C=O
  fluorescence lifetime: 2.35 ns
In CO
  fluorescence lifetime: 1.68 ns
In CS(C)=O
  fluorescence lifetime: 2.49 ns
In O
  fluorescence lifetime: 3.2 ns

## Nc1ccc2c(ccc3[n+]2[B-](F)(F)n2c-3cc3c4ccccc4c4ccccc4c32)c1
In ClCCl
  fluorescence lifetime: 2.96 ns

## Nc1cccc2c1-c1ccccc1C2=O
In C1CCCCC1
  fluorescence lifetime: 3.2 ns
In CC#N
  fluorescence lifetime: 4.2 ns
In c1ccccc1
  fluorescence lifetime: 9.3 ns

## c1ccc(N(c2ccccc2)c2ccc(-c3cccc4nc5ccccc5cc34)cc2)cc1
In CC#N
  fluorescence lifetime: 6.83 ns
In CCCCCC
  fluorescence lifetime: 1.95 ns
In CCOCC
  fluorescence lifetime: 6.67 ns
In ClCCl
  fluorescence lifetime: 14.5 ns

## c1ccc2c(-c3ccc4sc5ccc(-c6c7ccccc7cc7ccccc67)cc5c4c3)c3ccccc3cc2c1
In C1CCCCC1
  fluorescence lifetime: 3.9 ns
In CC#N
  fluorescence lifetime: 4.3 ns
In ClCCl
  fluorescence lifetime: 4.7 ns

## COc1ccc(/C=C/C2=CC(/C=C/c3ccc(OC)cc3)=[O+][B-](OC(C)=O)(OC(C)=O)O2)cc1
In C1CCOC1
  fluorescence lifetime: 2.38 ns
In CC#N
  fluorescence lifetime: 2.09 ns
In CC(C)=O
  fluorescence lifetime: 2.29 ns
In CS(C)=O
  fluorescence lifetime: 2.26 ns
In Cc1ccccc1
  fluorescence lifetime: 2.45 ns
In ClC(Cl)Cl
  fluorescence lifetime: 2.52 ns
In ClCCl
  fluorescence lifetime: 2.63 ns

## CCN(CC)c1ccc2c(-c3ccccc3C(=O)O)c3c([o+]c2c1)/C(=C/c1nc(C)n2ccccc12)CCC3
In ClCCl
  fluorescence lifetime: 2.21 ns

## CC(C)(C)c1cc2ccc3cc(C(C)(C)C)cc4c(N(c5ccccc5)c5ccccc5)cc(c1)c2c34
In CCCCCC
  fluorescence lifetime: 3.1 ns

## O=P1(c2ccccc2)c2cc(N3c4ccccc4Oc4ccccc43)ccc2-c2ccc(N3c4ccccc4Oc4ccccc43)cc21
In c1ccc2c(c1)c1ccccc1n2-c1ccc(-c2ccc(-n3c4ccccc4c4ccccc43)cc2)cc1
  fluorescence lifetime: 23.7 ns

## COc1cc(C(=O)c2c(C)c3ccc4cccc5c6cccc7ccc2c(c76)c3c45)cc(OC)c1OC
In ClCCl
  fluorescence lifetime: 1.35 ns

## COc1ccc(-c2oc3cccc4c5c(-c6ccc(OC)c(OC)c6)/c(=N/S(=O)(=O)C(F)(F)F)oc6cccc(c2c34)c65)cc1OC
In ClC(Cl)Cl
  fluorescence lifetime: 4.4 ns

## N#Cc1c(-n2c3ccccc3c3cc(Br)ccc32)c(-n2c3ccccc3c3cc(Br)ccc32)c(C#N)c(-n2c3ccccc3c3cc(Br)ccc32)c1-n1c2ccccc2c2cc(Br)ccc21
In Cc1ccccc1
  fluorescence lifetime: 0.4 ns

## CC(C)[Si](C#Cc1ccc(C#C[Si](C(C)C)(C(C)C)C(C)C)c2nc3cc4c(cc3nc12)[C@H]1c2ccccc2[C@@H]4c2ccccc21)(C(C)C)C(C)C
In CCCCCC
  fluorescence lifetime: 3.1 ns
In ClCCl
  fluorescence lifetime: 3.4 ns

## COC(=O)C12N=N[C@](C(=O)OC)(C3C4CCC(C4)C31)C1[C@@H]3CC[C@@H](C3)[C@H]12 (stereo not given in full)
In CC#N
  fluorescence lifetime: 273 ns

## N#Cc1nc2c3ccc(-c4ccc(-n5c6ccccc6c6ccccc65)cc4)cc3c3cc(-c4ccc(-n5c6ccccc6c6ccccc65)cc4)ccc3c2nc1C#N
In O=P(c1ccccc1)(c1ccccc1)c1cccc(-c2cc(-n3c4ccccc4c4ccccc43)cc(-n3c4ccccc4c4ccccc43)c2)n1
  fluorescence lifetime: 40.6 ns

From the Deep4Chem optical property database
